Assay results reported in ChEMBL document CHEMBL1201862, “PubChem BioAssay data set” (2004).
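Following 48 hours of exposure in 96-well plates, responses at five concentrations were used to interpolate endpoints linearly. The concentration for 50% growth inhibition is given as GI50.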 Calls of active or inactive are those of the source. Rule as the data show it: active = GI50 up to about 1.1 µM and inactive = higher.

Tests used:
Experiment in all cases: NCI-60 cell line screen, 48 h
786-0 = system: 786-0
A498 = system: A498
BT-549 = system: BT-549
HCT-116 = system: HCT-116
HOP-92 = system: HOP-92
HT-29 = system: HT-29
LOX IMVI = system: LOX IMVI
M14 = system: M14
MCF7 = system: MCF7
NCI-H226 = system: NCI-H226
NCI-H23 = system: NCI-H23
NCI-H460 = system: NCI-H460
OVCAR-5 = system: OVCAR-5
OVCAR-8 = system: OVCAR-8
SF-539 = system: SF-539
SK-OV-3 = system: SK-OV-3
T47D = system: T47D
UACC-257 = system: UACC-257
UO-31 = system: UO-31
Malme-3M = system: Malme-3M

Measured: GI50

Cc1cc2c([N+](=O)[O-])cc3c(c2o1)C(=O)C=CC3=O
inactive: 786-0 2.01 µM | A498 15.5 µM | BT-549 16.6 µM | HCT-116 5.51 µM | HOP-92 1.72 µM | HT-29 2.12 µM | LOX IMVI 6.76 µM | M14 5.58 µM | MCF7 4.18 µM | NCI-H226 28.6 µM | NCI-H23 17.7 µM | NCI-H460 18.5 µM | OVCAR-5 20 µM | OVCAR-8 19.6 µM | SF-539 15.1 µM | SK-OV-3 29.5 µM | T47D 3.12 µM | UACC-257 2.62 µM | UO-31 1.67 µM

CC1CN(c2cc3c(cc2F)c(=O)c(C(=O)O)cn3-c2ccc(N3CCN(C)CC3)cn2)CC(C)N1 (configuration not stated)
inactive: 786-0 > 100 µM | A498 > 100 µM | BT-549 > 100 µM | HCT-116 > 100 µM | HOP-92 > 100 µM | HT-29 > 100 µM | M14 > 100 µM | MCF7 98.9 µM | Malme-3M > 100 µM | NCI-H226 > 100 µM | NCI-H23 > 100 µM | NCI-H460 > 100 µM | OVCAR-5 > 100 µM | OVCAR-8 44.5 µM | SF-539 > 100 µM | SK-OV-3 > 100 µM | T47D > 100 µM | UACC-257 > 100 µM | UO-31 > 100 µM

CCCCn1cnc2c(SC)ncnc21
inactive: 786-0 > 100 µM | A498 > 100 µM | BT-549 > 100 µM | HCT-116 > 100 µM | HOP-92 > 100 µM | HT-29 > 100 µM | LOX IMVI > 100 µM | M14 > 100 µM | MCF7 > 100 µM | Malme-3M > 100 µM | NCI-H23 > 100 µM | NCI-H460 > 100 µM | OVCAR-5 > 100 µM | OVCAR-8 > 100 µM | SF-539 > 100 µM | SK-OV-3 > 100 µM | T47D > 100 µM | UACC-257 > 100 µM | UO-31 > 100 µM

CCSC1=CC2(O)N(CCc3ccc(OC)c(OC)c3)C(=O)CC2(C(=O)OC)CC1=O (configuration not stated)
inactive: 786-0 19.3 µM | A498 > 100 µM | BT-549 18.4 µM | HCT-116 17.9 µM | HOP-92 14.6 µM | HT-29 18.6 µM | LOX IMVI 19.1 µM | M14 25.8 µM | MCF7 19.7 µM | NCI-H226 > 100 µM | NCI-H23 18.4 µM | OVCAR-5 > 100 µM | OVCAR-8 16.6 µM | SF-539 26.3 µM | SK-OV-3 86.9 µM | T47D 21 µM | UACC-257 17.9 µM | UO-31 18.5 µM

CN(O)C(=O)CCC(NC(=O)CCC(N)C(=O)O)C(=O)NCC(=O)O (configuration not stated)
inactive: 786-0 > 100 µM | A498 > 100 µM | BT-549 > 100 µM | HCT-116 > 100 µM | HOP-92 > 100 µM | HT-29 > 100 µM | LOX IMVI > 100 µM | M14 > 100 µM | MCF7 > 100 µM | NCI-H226 > 100 µM | NCI-H23 > 100 µM | NCI-H460 > 100 µM | OVCAR-5 > 100 µM | OVCAR-8 > 100 µM | SF-539 > 100 µM | SK-OV-3 > 100 µM | T47D > 100 µM | UACC-257 > 100 µM | UO-31 > 100 µM

CCOc1c(OC)cc(-c2nc3n(n2)C(=O)C(CC)S3)cc1OC (configuration not stated)
inactive: 786-0 > 10 µM | A498 > 10 µM | BT-549 > 10 µM | HCT-116 > 10 µM | HT-29 > 10 µM | LOX IMVI > 10 µM | M14 > 10 µM | MCF7 > 10 µM | Malme-3M > 10 µM | NCI-H226 > 10 µM | NCI-H23 > 10 µM | NCI-H460 > 10 µM | OVCAR-5 > 10 µM | OVCAR-8 > 10 µM | SF-539 > 10 µM | SK-OV-3 > 10 µM | T47D > 10 µM | UACC-257 > 10 µM

COc1ccc2c[n+](C)c3c4cc(OC)c(OC)cc4ccc3c2c1
inactive: 786-0 2.39 µM | A498 45.8 µM | BT-549 2.85 µM | HCT-116 4.37 µM | HOP-92 10.1 µM | HT-29 4.1 µM | LOX IMVI 4.72 µM | M14 15.7 µM | Malme-3M 7.6 µM | NCI-H226 15.5 µM | NCI-H23 3.12 µM | NCI-H460 3.91 µM | OVCAR-5 8.63 µM | OVCAR-8 2.14 µM | SF-539 10.7 µM | SK-OV-3 2.99 µM | T47D 2.73 µM | UACC-257 20.7 µM | UO-31 44 µM

O=[N+]([O-])/C(C(Cl)=C(Cl)Cl)=C(\Nc1ccccc1)n1nnc2ccccc21
inactive: 786-0 48.9 µM | A498 > 100 µM | BT-549 27 µM | HCT-116 65.3 µM | HT-29 44.8 µM | LOX IMVI 17.4 µM | M14 65 µM | MCF7 55.8 µM | Malme-3M 46.1 µM | NCI-H226 > 100 µM | NCI-H23 25.9 µM | NCI-H460 77.8 µM | OVCAR-5 42.1 µM | OVCAR-8 > 100 µM | SF-539 32.3 µM | SK-OV-3 71.3 µM | T47D > 100 µM | UACC-257 > 100 µM | UO-31 21.9 µM

Clc1nc2c(C#Cc3ccccc3)ncnc2n1C1CCCCO1 (configuration not stated)
inactive: 786-0 11.6 µM | BT-549 14.8 µM | HCT-116 10 µM | HOP-92 14.8 µM | HT-29 12.4 µM | LOX IMVI 12.6 µM | M14 12.1 µM | MCF7 8.32 µM | Malme-3M 17.6 µM | NCI-H226 71.3 µM | NCI-H23 12.9 µM | NCI-H460 15.7 µM | OVCAR-5 12.6 µM | OVCAR-8 19.9 µM | SF-539 14.3 µM | SK-OV-3 27.6 µM | T47D 19.1 µM | UACC-257 15 µM | UO-31 11.9 µM

O=C1/C(=C2\Sc3c(ccc(Cl)c3Cl)C2=O)Sc2c1ccc(Cl)c2Cl
inactive: 786-0 > 100 µM | A498 > 100 µM | BT-549 > 100 µM | HCT-116 > 100 µM | HOP-92 > 100 µM | HT-29 > 100 µM | M14 > 100 µM | MCF7 > 100 µM | Malme-3M > 100 µM | NCI-H226 > 100 µM | NCI-H23 > 100 µM | NCI-H460 > 100 µM | OVCAR-5 > 100 µM | OVCAR-8 > 100 µM | SF-539 > 100 µM | T47D > 100 µM | UACC-257 > 100 µM | UO-31 > 100 µM

COC(OC)[C@@H]1OC[C@H](n2cnc3c(N)ncnc32)[C@H]1O
inactive: 786-0 > 100 µM | A498 > 100 µM | BT-549 > 100 µM | HCT-116 > 100 µM | HOP-92 > 100 µM | HT-29 > 100 µM | LOX IMVI > 100 µM | M14 > 100 µM | NCI-H226 > 100 µM | NCI-H23 > 100 µM | NCI-H460 > 100 µM | OVCAR-5 > 100 µM | SF-539 > 100 µM | SK-OV-3 > 100 µM | T47D > 100 µM | UACC-257 > 100 µM | UO-31 > 100 µM

O=C1CCCCC/C1=C\c1ccc([N+](=O)[O-])cc1
inactive: 786-0 19.7 µM | A498 35.2 µM | BT-549 23 µM | HCT-116 22.7 µM | HT-29 30.3 µM | M14 32.1 µM | MCF7 46.3 µM | Malme-3M 43.7 µM | NCI-H460 20.1 µM | OVCAR-5 31.4 µM | OVCAR-8 38.8 µM | SF-539 26.5 µM | SK-OV-3 36.1 µM | T47D 31.5 µM | UACC-257 20.9 µM | UO-31 24.5 µM

O=c1cc(-c2ccc(O)cc2)oc2cc(O[C@@H]3O[C@H](CO)[C@@H](O)[C@H](O)[C@H]3O)cc(O)c12 [APIGETRIN]
inactive: 786-0 > 100 µM | A498 67.1 µM | BT-549 24.4 µM | HCT-116 33.4 µM | HOP-92 83.9 µM | HT-29 53 µM | LOX IMVI 33.1 µM | M14 > 100 µM | MCF7 > 100 µM | NCI-H226 26.7 µM | NCI-H23 50.8 µM | NCI-H460 34.2 µM | OVCAR-5 > 100 µM | OVCAR-8 31.7 µM | SF-539 48.5 µM | SK-OV-3 > 100 µM | T47D 81.7 µM | UACC-257 > 100 µM | UO-31 43.2 µM

CC(=O)O[C@@H]1C2=C(C)C=C(O2)[C@H]2O[C@]2(C)C[C@H]2C=C(C(=O)O2)[C@H](OC(C)=O)CC1[C@@]1(C)CO1 (some centres not stated)
inactive: 786-0 23.9 µM | A498 > 100 µM | BT-549 21.1 µM | HCT-116 15.1 µM | HT-29 25.4 µM | LOX IMVI 18.4 µM | M14 23.8 µM | MCF7 18 µM | Malme-3M 17.5 µM | NCI-H226 > 100 µM | NCI-H23 28.9 µM | NCI-H460 37 µM | OVCAR-5 26.4 µM | OVCAR-8 35.4 µM | SF-539 29.5 µM | SK-OV-3 > 100 µM | T47D 18.8 µM | UACC-257 28.1 µM | UO-31 20.1 µM

COC(=O)c1cc(CC2Cc3cc4c(cc3C2=O)CCC4)cc2c1CCC2 (configuration not stated)
inactive: 786-0 55.2 µM | A498 > 100 µM | BT-549 60 µM | HCT-116 42.2 µM | HT-29 51.8 µM | LOX IMVI > 100 µM | M14 52.1 µM | MCF7 45.8 µM | Malme-3M 37.8 µM | NCI-H226 > 100 µM | NCI-H23 > 100 µM | NCI-H460 > 100 µM | OVCAR-5 > 100 µM | OVCAR-8 > 100 µM | SF-539 > 100 µM | SK-OV-3 > 100 µM | T47D > 100 µM | UACC-257 77.6 µM | UO-31 > 100 µM
